Source: article PMC11365967 (Nature Communications, 2024)

Target: T1, CCR6 (Homo sapiens, UniProt P51684)
T1 sequence (P51684 1-374): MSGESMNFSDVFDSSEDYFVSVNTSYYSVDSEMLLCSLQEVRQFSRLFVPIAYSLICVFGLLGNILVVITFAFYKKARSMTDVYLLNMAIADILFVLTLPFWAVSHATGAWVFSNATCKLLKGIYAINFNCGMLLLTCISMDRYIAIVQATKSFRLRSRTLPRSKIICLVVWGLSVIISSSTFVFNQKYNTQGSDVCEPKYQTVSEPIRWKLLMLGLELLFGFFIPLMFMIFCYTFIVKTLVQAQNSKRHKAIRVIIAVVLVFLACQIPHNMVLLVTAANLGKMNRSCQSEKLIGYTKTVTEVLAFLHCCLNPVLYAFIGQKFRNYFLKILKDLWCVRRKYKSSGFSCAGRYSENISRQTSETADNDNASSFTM
Experiment: CCL20-mediated CCR6+ human T cell chemotaxis assay
Type: cell-based

## CC(C)(C(=O)NCC1CN(C2Cc3ccccc3C2)C(=O)CO1)c1ccc(Cl)cc1 (stereo not shown) [OXM3]
  activity on CCR6: neither OXM3 nor OXM4 are active

## O=C1COC(CNC(=O)C2(c3ccccc3)CC2)CN1C1Cc2ccccc2C1 (stereo not shown) [OXM4]
  activity on CCR6: neither OXM3 nor OXM4 are active

## CCL20: cognate chemokine ligand (agonist) of CCR6 (Peprotech)
Mean ± s.d., n = 5
  pEC50, CCL20-induced CCR6+ human T cell chemotaxis: 9.7 ± 0.9
read-out: EC50, CCL20-induced CCR6+ human T cell chemotaxis, n = 5
  EC50: 0.19 nM
